Reference: US20100285038A1, “Factor Involved in Metastasis and Uses Thereof” (priority 2002, published 2010)
d = 2'-deoxy (DNA); m = 2'-O-methyl

Key:
PRF1 protein = test: Western blot analysis of PRF1 protein expression in PC-3 cells; format: cell-based, human; conditions: for expression of PRF1 protein: PC-3 cells under hypoxic conditions, 72 h GeneBloc treatment, CoCl2 treatment for 24 h (FIG. 10B); for expressed PRF1 protein: lysates of PC-3 cells treated with PRF1 specific GeneBlocs or mismatches, polyclonal antibody (FIG. 8A)
Procedure: A polyclonal antibody was generated against PRF1 using standard techniques. The polyclonal antibody thus obtained was tested for its specificity for PRF1. For that purpose, cell lysates from PC-3 cells treated with PRF1 specific antisense molecules, more particularly gene blocks, or mismatches thereof and cells transfected with expression plasmides for recombinant HA-tagged PRF1 were prepared. The lysates were analysed by Western blot analysis using the polyclonal antibody and the results are depicted in FIG. 8 A.
To investigate whether PI 3-kinase activity has an impact on PRF1 protein expression, PC-3 cells were treated either with LY294002 or with DMSO as control. Analysis was performed by Western Blot analysis using the polyclonal antibody as detection means for PRF1 protein. Apart from PRF1 protein, also expression of Akt and phosphorylated Akt (P*Akt) was monitored using respective specific antibodies. Additionally, the expression of p110α and p85 was monitored.
(§1) To investigate whether the expression of PRF1 at the protein level would also be dependent on Akt (PKB) activity and HIF1α activity PC-3 cells were treated with Akt specific antisense molecules. More particularly, two antisense molecules, designated Akt1-GB and Akt2-molecule were used with the readout being the same as discussed in connection with FIG. 9, whereby, additionally, the HIF1α protein expression was monitored using a commercially available protein G-purified polyclonal antibody (R&DSystems, Lot Number: IUGO13071).
(§2) The same experiment using the same markers for monitoring except Akt and P*-Akt was carried out with cells grown under hypoxic conditions which was realized by treating the cells with CoCl2. Two different forms of antisense molecules, namely HIF1α-GB66 and HIF1α-GB67 were used and respective mismatches used as controls.
(§3) A lane of the Blot represents the cell lysate of the cells shown in the corresponding photograph. As a read-out, p110 alpha and p85 are shown as loading control and the component of the PI-3K pathway investigated, i.e. AKT, monitored as P*AKT, HIF1 alpha and PRF1.

HIF1α = test: Western blot analysis of HIF1α protein expression in PC-3 cells; format: cell-based, human; conditions: PC-3 cells under hypoxic conditions; 72 h GeneBloc treatment, CoCl2 treatment for 24 h (FIG. 10B)
Procedure: as §1, §2, §3

PC-3 cells [1] = test: In vitro growth on Matrigel matrix; format: cell-based, human; conditions: PC-3 cells transfected with GeneBloc; versus corresponding mismatched oligonucleotides
Procedure: PC3 cells were treated with 10 μM LY294002 or DMSO when seeded on Matrigel. If cells were transfected previous to seeding cells were transfected with GeneBloc and trypsinized 48 h post transfection. The cells were washed in medium and seeded into duplicate 24-wells (100.000 cells per well) pre-coated with 250 μl matrigel basement membrane matrix (Becton Dickinson). After incubation for 24 to 72 h photographs were taken at 5× magnification with an Axiocam camera attached to an Axiovert 5100 microscope (Zeiss).
A more confluent growth of the cells is taken as an indication that their metastasis and migration behavior is increased which allows the cells to spread over the three-dimensional structure provided by the matrigel. The result of this example is depicted in FIG. 5.
PC3 cells were transfected and seeded on matrigel as described and growth was monitored. mRNA was isolated from an aliquot of the cells seeded on matrigel and analysed using Taqman assay (left panel). PRF1 (NM_019058) specific mRNA was standardized to internal p110α mRNA levels. A PTEN specific GeneBloc is used as a negative control in the PTEN^−/− PC-3 cells and a p110β specific GeneBloc is used as a positive control for growth in extracellular matrix. […]

[2] = test system: PRF1 (NM—019058) specific mRNA; test: PRF1 mRNA knock-down by real time RT-PCR (Taqman) in transfected PC-3 cells; format: cell-based, human; conditions: PC-3 cells seeded on matrigel; standardized to internal p110α mRNA levels; DCt method
Procedure: Transfections were carried out in 96 well or 10-cm plates (at 30% to 50% confluency) by using various cationic lipids such as Oligofectamine, Lipofectamine (Life Technologies), NC388 (Ribozyme Pharmaceuticals, Inc., Boulder, Colo.), or FuGene 6 (Roche) according to the manufacturer's instructions. GeneBlocs were transfected by adding pre-formed 5× concentrated complex of GeneBloc and lipid in serum-free medium to cells in complete medium. The total transfection volume was 100 μl for cells plated in 96 wells and 10 ml for cells in 10 cm plates. The final lipid concentration was 0.8 to 1.2 μg/ml depending on cell density; the GeneBloc concentration is indicated in each experiment.
The RNA of cells transfected in 96-wells was isolated and purified using the Invisorb RNA HTS 96 kit (InVitek GmbH, Berlin). Inhibition of PRF1 mRNA expression was detected by real time RT-PCR (Taqman) analysis using 300 nM PRF1 5′ primer, 300 nM PRF1 3′ primer and 100 nM of the PRF1 Taqman probe Fam-Tamra labelled. […]
PC3 cells were transfected and seeded on matrigel as described and growth was monitored. mRNA was isolated from an aliquot of the cells seeded on matrigel and analysed using Taqman assay (left panel). […]

[3] = test system: PI 3-kinase (p110α and p85); test: Western blot analysis of PI 3-kinase (p110α and p85) expression in PC-3 cells; format: cell-based, human; conditions: lysates of PC-3 cells treated with PRF1 specific GeneBloc (FIG. 8A)
PC-3 cells [4] = test: Prostatic tumor growth and lymph node metastasis of PC-3 cells stably transfected with siRNA expression plasmids; format: in vivo, Shoe:NMRI-nu/nu mice; conditions: 56 days post inoculation, stably transfected PC-3 cells
Procedure: Male Shoe:NMRI-nu/nu mice (Tierzucht Schönwalde GmbH) maintained under SPF conditions (Laminar air flow equipment, Scantainer, Scanbur) served as recipients for the human prostate carcinoma cells. The animals, aged 6-8 weeks and weighing 28-30 g, were inoculated 2×10^6/0.03 ml tumor cells into both, the left dorsolateral lobe of the prostatic gland (iprost; Orthotopic) or the tip of the Lobus lateralis sinister of the liver (ihep; Ectopic). For this purpose, the mice received a total body anaesthesia using a mixture of Ketanest (Parke-Davis GmbH) and Rompun (Bayer Vital GmbH) 80:1 with dosages of 100 mg/kg and 5 mg/kg, respectively. […]
All sacrificed animals were completely dissected and photographically documented. Tumors (Prostatic gland) and metastases (Caudal, lumbar, renal lymph node metastases) were measured in two dimensions by means of a pair of callipers. The volume was calculated according to V (mm^3)=ab^2/2 with b<a. […]
The various siRNA constructs such as the ones directed to p 110 alpha, p110 beta and PTEN as well as the PRF1 specific siRNA were cloned in the same vector construct. […] Resistent pools of cells were expanded and harvested, cell number determined and prepared for animal experiment as described. […]

Q: “Akt2 GeneBloc: Akt specific antisense molecule (GeneBloc), SEQ ID NO: 38 (antisense UCCUUGTACCCAATGAAGGAG; sugars from the 5' end m6 d9 m6, backbone and methylation of C not given here; DNA gap phosphorothioate-linked, flank linkages not clearly stated, further chemistry not fully specified)” was tested. Which PRF1 protein level (PRF1 protein; PC-3 cells, 72 h after treatment with Akt specific antisense molecules (FIG. 10A)) did it give?
A: reduction

Q: With “HIF1α-GB66: GeneBloc antisense molecule specific for HIF1α, SEQ ID NO: 32 (antisense GGUAGUGGTGGCATTAGCAGU; sugars from the 5' end m6 d9 m6, backbone and methylation of C not given here; DNA gap phosphorothioate-linked, flank linkages not clearly stated, further chemistry not fully specified)” as the molecule, how does the “expression of HIF1α at the protein level” value (HIF1α) read?
A: significantly reduced

Q: And the “expression of PRF1 protein” value (PRF1 protein)?
A: reduced

Q: Which growth on matrigel (PC-3 cells [1]) does the source give for “GeneBloc 70043: third generation antisense oligonucleotide directed to PRF1 mRNA, SEQ ID NO. 7 (antisense CCCAAAAGTTCAGTCGUCUCU; sugars from the 5' end m6 d9 m6, backbone and methylation of C not given here; DNA gap phosphorothioate-linked, flank linkages not clearly stated, further chemistry not fully specified)” here?
A: Specific growth inhibition

Q: And the “knockdown of the mRNA of PRF1” value [2]?
A: significant knockdown

Q: What about the “PI 3-kinase expression (p110α and p85 specific antibodies)” value [3] of the same molecule?
A: still being extensively expressed

Q: What about the “expressed PRF1 protein” value (PRF1 protein) of the same molecule?
A: clear reduction

Q: Which growth on matrigel (PC-3 cells [1]) does the source give for “GeneBloc 70044: third generation antisense oligonucleotide directed to PRF1 mRNA, SEQ ID NO. 8 (antisense GCUCCUGCCTCTAGTCUCCAC; sugars from the 5' end m6 d9 m6, backbone and methylation of C not given here; DNA gap phosphorothioate-linked, flank linkages not clearly stated, further chemistry not fully specified)” here?
A: Specific growth inhibition

Q: And the “knockdown of the mRNA of PRF1” value [2]?
A: significant knockdown

Q: And the “expressed PRF1 protein” value (PRF1 protein)?
A: significant decrease

Q: With “HIF1α-GB67: GeneBloc antisense molecule specific for HIF1α, SEQ ID NO: 34 (antisense UGACUCCTTTTCCTGCUCUGU; sugars from the 5' end m6 d9 m6, backbone and methylation of C not given here; DNA gap phosphorothioate-linked, flank linkages not clearly stated, further chemistry not fully specified)” as the molecule, how does the “expression of HIF1α at the protein level” value (HIF1α) read?
A: significantly reduced

Q: And the “expression of PRF1 protein” value (PRF1 protein)?
A: reduced

Q: Which “expressed PRF1 protein” value (PRF1 protein) does the source give for “GeneBloc 70168: mismatched oligonucleotide (4 mismatches) corresponding to 70043, alias FLJ: 954L21, SEQ ID NO. 12 (CCGAAAAGAACAGTGCUCUCU; sugars from the 5' end m6 d9 m6, backbone and methylation of C not given here; DNA gap phosphorothioate-linked, flank linkages not clearly stated, further chemistry not fully specified)” here?
A: significantly expressed

B1: PRF1 specific siRNA: siRNA generated by U6+2 promoter driven expression from plasmid, directed to the mRNA of PRF1; expression cassette SEQ ID NO. 17 (nucleic acid)
DNA: GAATTCCTATTTCCCATGATTCCTTCATATTTGCATATTTTTAAAATGGACTATCATATGCTTACCGTAACTTGAAAGTATTTCGATTTCTTGGCTTTATATATCTTGGGAAAGGACGAAACACCGGGAGACTAGAGGCAGGAGCAAAAAAAAAAACTCCTGCCTCTAGTCTCCACTTTTTCTCGAG
notes: siRNA generated by U6+2 promoter driven expression from plasmid, directed to the mRNA of PRF1; 17
Q: Which “prostatic tumor growth (volume of primary prostate tumors)” value (PC-3 cells [4]; EGFP expression plasmid as control (FIG. 6C)) does the source give for B1 here?
A: significantly inhibited

Q: And the “total lymph node metastasis (volume)” value (PC-3 cells [4]; EGFP expression plasmid as control (FIG. 6D))?
A: less prominent
